These results are taken from patent US9532983B2, “Benzofuran compounds, compositions, kits and/or methods thereof” (Savannah State University, priority 2013, dated 2017).

Data set [1] deals with T1, 5-HT2A (Homo sapiens, UniProt P28223).
T1 construct: expressed in transfected cells
Put plainly: Secondary binding assay, Ki determination: 5-HT2A.

For data set [2], the target named is T2, σ1 receptor (Rattus norvegicus, UniProt Q9R0C9).
T2 construct: crude membrane fractions prepared from rat brain homogenate for σ1 receptors; from tissue; host or cells: rat brain homogenate, crude membrane fraction
T2 sequence (Q9R0C9 whole entry): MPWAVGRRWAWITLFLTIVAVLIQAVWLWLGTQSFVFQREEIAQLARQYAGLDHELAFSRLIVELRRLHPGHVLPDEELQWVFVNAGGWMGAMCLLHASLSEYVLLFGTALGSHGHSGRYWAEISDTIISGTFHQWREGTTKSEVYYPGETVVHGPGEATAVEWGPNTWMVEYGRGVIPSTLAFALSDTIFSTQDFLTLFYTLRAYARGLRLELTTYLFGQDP
Put plainly: Secondary binding assay, Ki determination at σ1 receptor ([3H]pentazocine). Conditions: rat brain homogenate, read-out: σ-1 (Ki).

The target in data set [3] is T3, Alpha2C (Homo sapiens, UniProt P18825).
T3 construct: expressed in transfected cells
T3 sequence (P18825 1-462): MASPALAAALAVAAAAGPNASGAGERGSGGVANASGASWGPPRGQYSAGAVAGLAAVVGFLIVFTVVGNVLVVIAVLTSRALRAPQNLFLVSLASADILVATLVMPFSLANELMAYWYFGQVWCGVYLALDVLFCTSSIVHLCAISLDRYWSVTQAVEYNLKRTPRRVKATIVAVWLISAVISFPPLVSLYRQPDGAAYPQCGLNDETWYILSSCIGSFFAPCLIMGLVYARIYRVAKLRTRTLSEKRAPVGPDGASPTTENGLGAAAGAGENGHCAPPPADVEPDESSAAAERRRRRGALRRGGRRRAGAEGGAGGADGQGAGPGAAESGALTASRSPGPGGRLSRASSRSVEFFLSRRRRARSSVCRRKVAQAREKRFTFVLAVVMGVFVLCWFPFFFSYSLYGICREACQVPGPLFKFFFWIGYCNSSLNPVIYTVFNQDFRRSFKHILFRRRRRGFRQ
Put plainly: Secondary binding assay, Ki determination: Alpha2C.

In data set [4] the target is T4, D3 (Homo sapiens, UniProt P35462).
T4 construct: expressed in transfected cells
T4 sequence (P35462 whole entry): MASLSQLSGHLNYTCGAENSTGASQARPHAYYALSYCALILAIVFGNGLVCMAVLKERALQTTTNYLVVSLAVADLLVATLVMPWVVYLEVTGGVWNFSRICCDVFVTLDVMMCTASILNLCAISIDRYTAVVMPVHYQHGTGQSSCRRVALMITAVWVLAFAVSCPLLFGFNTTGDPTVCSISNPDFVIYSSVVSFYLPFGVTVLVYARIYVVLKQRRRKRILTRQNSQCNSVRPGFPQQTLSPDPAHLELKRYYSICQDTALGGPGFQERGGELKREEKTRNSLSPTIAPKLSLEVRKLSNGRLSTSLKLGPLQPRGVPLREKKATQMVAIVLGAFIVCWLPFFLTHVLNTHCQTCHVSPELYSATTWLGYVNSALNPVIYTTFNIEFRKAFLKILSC
Nature of the data set: Primary binding assay at non-sigma receptors: D3. Conditions: 10 μM (final) assay concentration. On the procedure: (§1) Initial primary binding screening assays were performed using a 50 μM (initial)−10 μM (final) assay concentration of reference and test compounds.

In data set [5] the target is T5, 5HT3 (Homo sapiens, UniProt P46098).
T5 construct: expressed in transfected cells
T5 sequence (P46098 24-478): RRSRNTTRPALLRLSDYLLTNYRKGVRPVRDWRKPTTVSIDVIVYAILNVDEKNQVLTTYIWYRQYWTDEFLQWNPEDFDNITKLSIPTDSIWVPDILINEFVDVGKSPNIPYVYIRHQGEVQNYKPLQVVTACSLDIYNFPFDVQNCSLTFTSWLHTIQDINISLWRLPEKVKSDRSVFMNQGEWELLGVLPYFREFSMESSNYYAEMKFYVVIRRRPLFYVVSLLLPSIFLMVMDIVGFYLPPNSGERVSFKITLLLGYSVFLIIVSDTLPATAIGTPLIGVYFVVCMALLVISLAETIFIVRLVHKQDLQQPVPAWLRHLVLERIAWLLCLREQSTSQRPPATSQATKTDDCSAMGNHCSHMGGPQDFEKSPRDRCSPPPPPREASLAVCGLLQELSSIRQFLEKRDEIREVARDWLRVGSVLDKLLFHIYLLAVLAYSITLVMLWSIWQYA
Nature of the data set: Secondary binding assay, Ki determination: 5HT3.

In data set [6] the target is T6, 5-HT2B (Homo sapiens, UniProt P41595).
T6 construct: expressed in transfected cells
T6 sequence (P41595 whole entry, species assumed): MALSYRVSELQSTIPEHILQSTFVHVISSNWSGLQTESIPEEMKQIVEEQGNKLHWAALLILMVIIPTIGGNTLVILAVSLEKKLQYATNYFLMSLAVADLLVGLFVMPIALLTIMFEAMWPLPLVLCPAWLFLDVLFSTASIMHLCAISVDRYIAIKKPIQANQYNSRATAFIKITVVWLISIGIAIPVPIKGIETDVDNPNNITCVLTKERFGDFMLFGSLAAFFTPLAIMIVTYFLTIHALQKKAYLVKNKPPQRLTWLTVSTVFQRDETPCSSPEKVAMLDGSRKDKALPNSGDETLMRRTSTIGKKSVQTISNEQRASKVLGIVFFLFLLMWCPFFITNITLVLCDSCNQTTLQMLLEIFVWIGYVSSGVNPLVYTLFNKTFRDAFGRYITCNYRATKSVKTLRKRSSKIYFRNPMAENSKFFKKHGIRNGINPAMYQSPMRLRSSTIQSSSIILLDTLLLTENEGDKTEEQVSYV
Put plainly: Secondary binding assay, Ki determination: 5-HT2B.

The target of data set [7] is T7, Alpha2A (Homo sapiens, UniProt P08913).
T7 construct: expressed in transfected cells
T7 sequence (P08913 1-465): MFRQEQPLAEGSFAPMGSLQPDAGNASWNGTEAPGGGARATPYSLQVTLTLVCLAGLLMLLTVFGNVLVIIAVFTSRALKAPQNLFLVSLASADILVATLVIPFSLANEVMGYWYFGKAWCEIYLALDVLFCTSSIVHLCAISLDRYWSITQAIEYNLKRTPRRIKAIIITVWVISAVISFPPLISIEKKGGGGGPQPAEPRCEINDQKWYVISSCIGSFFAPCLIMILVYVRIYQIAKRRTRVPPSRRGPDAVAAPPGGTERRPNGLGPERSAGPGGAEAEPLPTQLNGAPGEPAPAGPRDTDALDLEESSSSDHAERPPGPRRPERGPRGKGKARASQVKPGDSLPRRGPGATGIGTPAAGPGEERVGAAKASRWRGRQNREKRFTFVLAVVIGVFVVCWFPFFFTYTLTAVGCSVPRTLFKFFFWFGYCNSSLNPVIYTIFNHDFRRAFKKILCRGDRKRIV
Put plainly: Secondary binding assay, Ki determination: Alpha2A.

In data set [8] the target is T7, Alpha2A. Put plainly: Primary binding assay at non-sigma receptors: Alpha2A. Conditions: 10 μM (final) assay concentration. On the procedure:
as §1

Data set [9] has as its system MA-10 cells. Nature of the data set: Cell viability assay (MTT) in MA-10 cells. It counts as cell-based, mouse. Conditions: 24 h, varying concentrations. On the procedure: Mouse Leydig cell line (MA-10) was grown in Waymouth media containing 15% horse serum, 5% fetal bovine serum, and 1× gentamycin, which was replaced with […] G418 (geneticin) for VDAC1 knockdown (ΔVDAC1) MA10 cells. Cells were maintained at 37° C. in a humidified incubator under 5% CO2. To isolate mitochondria, cells were removed from tissue culture plates by gentle scrapping in phosphate-buffered saline at room temperature, incubated in hypotonic buffer (10 mM HEPES, pH 7.4) for 30 to 40 min, and mitochondria were isolated following readily available procedures. The mitochondrial preparation was verified by Western blotting with the cytochrome P450 SCC enzyme (Corgen, Tapai, Taiwan) and calnexin antibodies (Santa Cruz Biotechnology, Inc., Santa Cruz, Calif.).
Stock solutions (1 mM) of the ligands were made in 1× phosphate buffered saline, filter-sterilized, and then further diluted up to 1 μM with serum-free medium. Cell viability was determined by the 3-[4,5-dimethylthiazol-2yl]-2,5-diphenyltetrazolium bromide assay using a commercially available kit following the manufacturer's instructions (Promega, Madison, Wis.). MA-10 cells were plated in a 96-well plate at an initial density of 4×10^3 cells per well for 24 h at 37° C. in 5% CO2 atm. After 24 h of serum starvation, the culture media were changed to serum-free media containing 1, 5, 10, 50, and 100 nM concentration for each KSCM ligand. Next, the cells were incubated for 2 to 3 h with 0.5 mg/ml of 3-[4,5-dimethylthiazol-2yl]-2,5-diphenyltetrazolium bromide reagent and lysed with dimethyl sulfoxide, and the absorbance was measured at 550 nm (FlexStation 3; Molecular Devices, Sunnyvale, Calif.).

A word on the Ki: it is a dissociation constant, usually derived from enzyme kinetics or from competition with a known ligand. As a reminder, the inhibition is how much of the control response was suppressed. A lower inhibition goes with a weak effect.

Values joined by “and” are separate entries in the source; they are usually repeats but may differ in a detail not shown here. Identical values can stand only once. “Also recorded” adds a separate entry of the source.

T1 sequence (P28223 whole entry): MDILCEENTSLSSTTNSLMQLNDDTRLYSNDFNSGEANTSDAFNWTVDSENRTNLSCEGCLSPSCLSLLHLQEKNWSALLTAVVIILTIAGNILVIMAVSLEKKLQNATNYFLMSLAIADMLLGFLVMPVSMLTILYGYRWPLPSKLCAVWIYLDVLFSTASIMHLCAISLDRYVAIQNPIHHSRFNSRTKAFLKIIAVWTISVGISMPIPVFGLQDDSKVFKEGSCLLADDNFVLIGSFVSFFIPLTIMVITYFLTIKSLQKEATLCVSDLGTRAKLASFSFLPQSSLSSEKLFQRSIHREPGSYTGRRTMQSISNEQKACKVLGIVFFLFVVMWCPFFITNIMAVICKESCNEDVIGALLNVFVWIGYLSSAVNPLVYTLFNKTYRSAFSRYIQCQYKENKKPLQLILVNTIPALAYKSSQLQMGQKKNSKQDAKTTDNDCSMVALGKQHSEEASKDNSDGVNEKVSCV

On to `COc1cc2oc(C(=O)N(CCCN3CCCCC3)c3ccccc3)c(C)c2cc1OC` [KSCM-1, 5,6-Dimethoxy-3-methyl-N-phenyl-N-(3-(piperidin-1-yl)propyl)benzofuran-2-carboxamide], for which the Ki in data set [1] is 2560 nM; in data set [2] it was 27 nM and 27.5 nM; in data set [3] it was 1540 nM; in [5], 7610 nM. Further, at 10 µM the inhibition in data set [4] was 38.8%.
For the compound `Cc1c(C(=O)N(CCCN2CCCCC2)c2ccccc2)oc2ccccc12` [KSCM-5, 3-Methyl-N-phenyl-N-(3-(piperidin-1-yl)propyl)benzofuran-2-carboxamide], the inhibition constant Ki in [6] amounted to 936 nM; in data set [7], 1230 nM; in data set [3] it was 249 nM. Besides, 10 µM produced 77.7% inhibition in data set [8]. Further, the “toxicity / effect on cell viability compared among the ligands (in words)” value in data set [9] is given as “most potent decrease in cell viability; also recorded: greatest toxicity”.
Take `COc1ccc2c(C)c(C(=O)N(CCCN3CCCCC3)c3ccccc3)oc2c1` [KSCM-11, 6-Methoxy-3-methyl-N-phenyl-N-(3-(piperidin-1-yl)propyl)benzofuran-2-carboxamide]: the Ki in data set [1] turned out to be 2770 nM; in data set [6], 204 nM; in data set [2], 34 nM; in data set [7], 653 nM. Also, the values for the inhibition at 10 µM in data set [8] and in data set [4] were 81.1% and 40.6%, respectively. In data set [9], the “toxicity / effect on cell viability compared among the ligands (in words)” value was “greater cytotoxic effect than KSCM-1”.
